From patent publication US6017919A, “Compounds and pharmaceutical use thereof” (Japan Tobacco Inc., priority 1996, dated 2000)
Counter-ions that a name gives are not always drawn. Like-named read-outs stand apart in the source and are kept apart here.

Experiments:
[1] = tested on: Sheep red blood cell-induced delayed type hypersensitivity; experiment: Sheep red blood cell (SRBC)-induced delayed type hypersensitivity (DTH) model; format: in vivo, female ddy mice; conditions: Mus musculus, Erythrocyte; po, mice, 1 h before SRBC challenge; paw volume 24 h after induction
Protocol: [III] Sheep red blood cell (SRBC)-induced delayed type hypersensitivity (DTH) model (in vivo)
Female ddy mice (6-8 weeks old) were used. On day 1, SRBC 10^7 cells were intradermally injected into the left foot pad of the mice (40 μl/foot) to immunize the mice. Five days later, the test compounds dissolved in olive oil were orally administered at 10 ml/kg. One hour later, SRBC 10^8 cells were intradermally injected into the right foot pad to induce the response. Twenty-four hours after the induction, the volume of the both paws was measured, and edema ratio was calculated by […].
(§1) In both [II] and [III], the test compounds were dissolved in DMSO and used upon dilution with olive oil (final concentration of DMSO 1%).

[2] = tested on: Carageenan-induced paw edema; experiment: Carageenan-induced paw edema model; format: in vivo, female ddy mice; conditions: Mus musculus; po, mice, 1 h before carageenan; paw volume 3 h later
Protocol: [II] Carageenan-induced paw edema model (in vivo)
Female ddy mice (6-8 weeks old) were used. […] One hour after the administration, 50 μL of 1% carageenan dissolved in physiological saline was intradermally injected into the right foot pad. Three hours later, the volume of the right paw was measured and compared with that measured before the carageenan injection.
as §1

[3] = target: T1, cannabinoid central type (CB1) receptor (Rattus norvegicus, UniProt P20272); experiment: Binding assay, cannabinoid central type receptor (CB1), rat cerebellar membrane fraction, [3H]Win55212-2
T1 construct: rat cerebellar membrane fraction and spleen cells were respectively used; from tissue; host or cells: rat cerebellar membrane fraction (male SD rats, 7-9 weeks old)
T1 sequence (P20272 whole entry): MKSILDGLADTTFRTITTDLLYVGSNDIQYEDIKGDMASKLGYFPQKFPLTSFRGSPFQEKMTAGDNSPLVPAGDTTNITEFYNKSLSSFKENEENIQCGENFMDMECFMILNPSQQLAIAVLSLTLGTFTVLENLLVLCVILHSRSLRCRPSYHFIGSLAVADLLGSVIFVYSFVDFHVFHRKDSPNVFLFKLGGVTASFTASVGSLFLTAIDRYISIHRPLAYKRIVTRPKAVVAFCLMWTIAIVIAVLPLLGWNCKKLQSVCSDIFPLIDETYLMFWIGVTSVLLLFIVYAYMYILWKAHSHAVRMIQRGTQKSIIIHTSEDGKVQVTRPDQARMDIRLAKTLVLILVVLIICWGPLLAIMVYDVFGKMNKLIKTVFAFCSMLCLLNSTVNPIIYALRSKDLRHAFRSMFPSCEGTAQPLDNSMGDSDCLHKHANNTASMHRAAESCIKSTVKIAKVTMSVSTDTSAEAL
Protocol: (§2) [I] Binding Assay (in vitro)
(§3) As the sample rich in cannabinoid central type (CB1) and peripheral type (CB2) receptors, rat cerebellar membrane fraction and spleen cells were respectively used (male SD rats, 7-9 weeks old). A sample (cerebellar membrane fraction: 50 μg/ml or spleen cells: 1×10^7 cells/ml), labeled ligand ([^3 H]Win55212-2, 2 nM) and unlabeled Win55212-2 or a test compound were plated in round bottom 24 well plates, and incubated at 30° C. for 90 min in the case of cerebellar membrane fraction, and at 4° C. for 360 min in the case of spleen cells. As the assay buffer, 50 mM Tris solution containing 0.2% BSA was used for cerebellar membrane fraction, and 50 mM Tris-HBSS containing 0.2% BSA was used for spleen cells. After incubation, the samples were filtrated through a filter (Packard, Unifilter 24 GF/B) and dried. A scintillation solution (Packard, Microsint-20) was added, and the radioactivity of the samples was determined (Packard, Top count A9912V). The non-specific binding was determined by adding an excess Win55212-2 (1 μM), and specific binding was calculated by subtracting non-specific binding from the total binding obtained by adding the labeled ligand alone. The test compounds were dissolved in DMSO to the final concentration of DMSO of 0.1%. IC50 was determined from the proportion of the specifically-bound test compounds, and the Ki value of the test compounds was calculated from IC50 and Kd value of [^3 H]Win55212-2.

[4] = target: T2, cannabinoid peripheral type (CB2) receptor (Rattus norvegicus, UniProt Q9QZN9); experiment: Binding assay, cannabinoid peripheral type receptor (CB2), rat spleen cells, [3H]Win55212-2; conditions: for C/S: ratio of Ki central receptor (C) to Ki peripheral receptor (S)
T2 construct: rat cerebellar membrane fraction and spleen cells were respectively used; from tissue; host or cells: rat spleen cells (male SD rats, 7-9 weeks old)
T2 sequence (Q9QZN9 1-360): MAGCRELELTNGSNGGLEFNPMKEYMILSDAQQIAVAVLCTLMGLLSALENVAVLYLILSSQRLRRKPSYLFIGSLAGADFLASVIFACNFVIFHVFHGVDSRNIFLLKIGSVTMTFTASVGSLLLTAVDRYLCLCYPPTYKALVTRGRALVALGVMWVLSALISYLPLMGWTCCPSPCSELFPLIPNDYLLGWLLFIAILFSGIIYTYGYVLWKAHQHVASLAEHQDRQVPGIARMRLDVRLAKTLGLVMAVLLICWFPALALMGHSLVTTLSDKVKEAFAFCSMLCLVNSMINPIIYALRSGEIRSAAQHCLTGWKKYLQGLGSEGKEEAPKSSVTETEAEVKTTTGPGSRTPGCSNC
Protocol: as §2, §3

[5] = rat cerebellar membrane fraction, [3H]Win55212-2 2 nM, 30° C. 90 min, read-out: Ki value, Central receptor (C)
[6] = rat spleen cells, [3H]Win55212-2 2 nM, 4° C. 360 min, read-out: Ki value, Peripheral receptor (S)

CCCCCOc1c(OC)ccc2c(=O)n(CCc3ccc(O)cc3)ccc12 [Example 7-19-1]
ED50 [1]: 0.033 mg/kg | ED50 [2]: 0.092 mg/kg | Ki [3, 5]: 200 nM | C/S [4]: 54

CCCCCSc1cc(/C=C/C(=O)NCCc2ccc(O)cc2)ccc1OC [Example 1-34, N-[2-(4-hydroxyphenyl)ethyl]-3-(4-methoxy-3-pentylthiophenyl)acrylamide]
ED50 [1]: 1.95 mg/kg | ED50 [2]: 0.59 mg/kg | Ki [3]: 930 nM | C/S [4]: 845

CCCCCNc1cc(/C=C/C(=O)NCCc2ccc(N)cc2)ccc1OC [Example 1-35, N-[2-(4-aminophenyl)ethy]-3-(4methoxy-3-pentylaminophenyl)-acrylamide]
ED50 [1]: 0.063 mg/kg | ED50 [2]: 0.12 mg/kg | Ki [3]: 160 nM | Ki [4, 6]: 10 nM | C/S [4]: 16

CCCCCOc1c(OC)ccc(C2=NC(C)(C)CO2)c1CO [Example 6-4]
ED50 [1]: 10 mg/kg | ED50 [2]: 0.25 mg/kg | Ki [3]: 650 nM | Ki [4, 6]: 11 nM | C/S [4]: 59

CCCCCOc1c(OC)ccc2c1CCN(CCc1ccc(N)cc1)C2=O [Example 7-38, hydrochloride]
ED50 [1]: 0.011 mg/kg | ED50 [2]: 0.11 mg/kg | Ki [3]: 220 nM | Ki [4]: 9.9 nM | C/S [4]: 22

CCCCCOc1cc(C(=O)NCCc2ccncc2)ccc1OC [Example 2-16]
ED50 [1]: 1.95 mg/kg | ED50 [2]: 1.1 mg/kg | Ki [3, 5]: > 4300 nM | C/S [4]: > 59

CCCCCOc1ccc(C(=O)NCCc2ccc(O)cc2)cc1OCCCCC [Example 2-3]
ED50 [1]: 0.053 mg/kg | ED50 [2]: 0.17 mg/kg | Ki [3]: > 3300 nM | C/S [4]: > 8250

CCCCCOc1c(OC)ccc2c1CN(CCc1ccc(O)cc1)C2=O [Example 7-5, 2-[2-(4-hydroxyphenyl)ethyl]-5-methoxy-4-pentyloxy-2,3-dihydroisoindol-1-one]
ED50 [1]: 0.038 mg/kg | ED50 [2]: 0.014 mg/kg | Ki [3]: > 2500 nM | C/S [4]: > 227

CCCCCNc1cc(C(=O)NCCc2ccc(O)cc2)ccc1OC [Example 2-6]
ED50 [1]: 0.72 mg/kg | ED50 [2]: 0.3 mg/kg | Ki ([3]; read-out: Ki value, Central receptor (C), rat cerebellar membrane fraction, [3H]Win55212-2 2 nM, 30° C. 90 min): 500 nM | Ki [4, 6]: 1.1 nM | C/S [4]: 455

CCCCCOc1ccc(C(=O)NCCc2ccc(N)cc2)cc1SCCCCC [Example 2-52, N-[2-(4-aminophenyl)ethyl]4-pentyloxy-3-pentylthiobenzamide]
ED50 [1]: 0.58 mg/kg | ED50 [2]: 1.85 mg/kg | Ki [3]: > 4300 nM | C/S [4]: > 2300

CCCCCOc1cc(/C=C/C(=O)NCCc2ccc(O)cc2)ccc1OC [Example 1-1]
ED50 [1]: 1.52 mg/kg | ED50 [2]: 1 mg/kg | Ki [3]: 230 nM | C/S [4]: 48

CCCCCNc1c(OC)ccc2c1CN(CCc1ccc(O)cc1)C2=O [Example 7-31, 2-[2-(4-hydroxyphenyl)ethyl]-5-methoxy-4-pentylamino-2,3-dihydroindol-1-one]
ED50 [1]: 0.08 mg/kg | ED50 [2]: 0.012 mg/kg | Ki [3]: 11 nM | C/S [4]: 125

CCCCCOc1c(OC)ccc2c1CN(CCc1ccc(N)cc1)C2=O [Example 7-37, 2-[2-(4-aminophenyl)ethyl]-5-methoxy-4-pentyloxy-2,3-dihydroisoindol-1-one]
ED50 [1]: 0.058 mg/kg | ED50 [2]: 0.49 mg/kg | Ki [3, 5]: 1300 nM | C/S [4]: 93

CCCCCOc1cc(C(=O)NCCc2cccc(O)c2)ccc1OC [Example 2-13]
ED50 [1]: 5.6 mg/kg | ED50 [2]: 3.2 mg/kg | Ki [3]: 5600 nM | Ki [4, 6]: 6.6 nM | C/S [4]: 849

CCCCCOc1cc(/C=C/C(=O)NCCc2ccc(O)cc2)ccc1OCC [Example 1-2]
ED50 [1]: 0.48 mg/kg | ED50 [2]: > 1 mg/kg | Ki [3]: 400 nM | Ki [4, 6]: 1.8 nM | C/S [4]: 222

CCCCCOc1c(OC)ccc2c1CCN(CCc1ccc(O)cc1)C2=O [Example 7-24, 2-[2-(4-hydroxyphenyl)ethyl]-6-methoxy-5-pentyloxy-3,4dihydro-2H-isoquinolin-1-one]
ED50 [1]: 0.027 mg/kg | ED50 [2]: 0.028 mg/kg | Ki [3]: > 2500 nM | C/S [4]: > 1389

CCCCCOc1cc(C(=O)NC2CCc3cc(O)c(O)cc3C2)ccc1OC (stereo not drawn) [Example 2-26]
ED50 [1]: 3.75 mg/kg | ED50 [2]: > 10 mg/kg | Ki [3]: > 2500 nM | C/S [4]: > 139

CCCCCOc1cc(C(=O)NCCc2ccc(O)cc2)ccc1OCC [Example 2-2]
ED50 [1]: 0.9 mg/kg | ED50 [2]: 0.51 mg/kg | Ki [3]: 1100 nM | Ki [4, 6]: 1.1 nM | C/S [4]: 1000

CCCCCOc1cc(C(=O)NCCc2ccc(O)cc2)ccc1OC [Example 2-1, N-[2-(4-hydroxyphenyl)ethyl]-(4-methoxy-3-pentyloxy)benzamide]
ED50 [1]: 0.14 mg/kg | ED50 [2]: 0.04 mg/kg | Ki [3, 5]: 1400 nM | C/S [4]: 560

CCCCCOc1ccc2c(c1OCCCCC)CN(CCc1ccc([N+](=O)[O-])cc1)C2=O [Example 7-30, 4,5-dipentyloxy-2-[2-(4-nitrophenyl)ethyl]-2,3-dihydroisoindol-1-one]
ED50 [1]: 0.021 mg/kg | ED50 [2]: < 0.01 mg/kg | Ki [3]: 2600 nM | Ki [4, 6]: 1.8 nM | C/S [4]: 1440

CCCCCOc1c(OC)ccc2c(=O)n(CCc3ccncc3)ccc12 [Example 7-20]
ED50 [1]: 0.084 mg/kg | ED50 [2]: 0.195 mg/kg | Ki [3, 5]: 400 nM | C/S [4]: 48

CCCCCOc1c(OC)ccc2c(=O)n(CCc3ccc(N)cc3)c(=O)[nH]c12 [Example 7-40, 3-[2-(4-aminophenyl)ethyl]-7-methoxy-8-pentyloxy-1H-quinazoline-2,4-dione]
ED50 [2]: 0.016 mg/kg | Ki [3]: 109 nM | Ki [4, 6]: < 3.7 nM | C/S [4]: > 30

CCCCCOc1c(OC)ccc2c1C(=O)N(CCc1ccc(O)cc1)C2=O [Example 7-4, 2-[2-(4-hydroxyphenyl)ethyl]-5-methoxy-4-pentyloxyisoindole-1,3-dione]
ED50 [1]: 1.6 mg/kg | ED50 [2]: 1.6 mg/kg | Ki [3, 5]: 1000 nM | C/S [4]: 137

CCCCOc1cc(/C=C/C(=O)NCCc2ccc(O)cc2)ccc1OC [Example 1-4]
ED50 [1]: 0.71 mg/kg | ED50 [2]: 0.55 mg/kg | Ki [3]: 960 nM | Ki [4, 6]: 7.7 nM | C/S [4]: 125

CCCCCOc1ccc2c(c1OCCCCC)CN(CCc1ccc(N)cc1)C2=O [Example 7-34, 2-[2-(4-aminophenyl)ethyl]-4,5-bispentyloxy-2,3-dihydroisoindol-1-one]
ED50 [1]: 0.012 mg/kg | ED50 [2]: 0.29 mg/kg | Ki [3]: 330 nM | C/S [4]: 3000

CCCCCOc1cc(OC)ccc1/C=C/C(=O)N1CCOCC1 [Example 8-2, (E)-[3-(4-methoxy-2-pentyloxyphenyl)-1-oxo-2-propenyl]-4-morpholine]
ED50 [1]: > 10 mg/kg | ED50 [2]: 0.5 mg/kg | Ki [3]: 560 nM | Ki [4, 6]: 8.4 nM | C/S [4]: 67

CCCCCOc1cc(/C=C/C(=O)N[C@@H](Cc2ccc(O)cc2)C(=O)OC)ccc1OC [Example 1-22]
ED50 [1]: 0.77 mg/kg | ED50 [2]: 0.14 mg/kg | Ki [3]: 480 nM | Ki [4, 6]: 1.4 nM | C/S [4]: 343

CCCCCCOc1cc(C(=O)NCCc2ccc(O)cc2)ccc1OC [Example 2-8]
ED50 [1]: 1.45 mg/kg | ED50 [2]: 0.73 mg/kg | Ki [3]: 1000 nM | Ki [4, 6]: 3.7 nM | C/S [4]: 270

CCCCOc1cc(C(=O)NCCc2ccc(O)cc2)ccc1OC [Example 2-7]
ED50 [1]: 2.35 mg/kg | ED50 [2]: 2.28 mg/kg | Ki [3]: > 2500 nM | Ki [4, 6]: 9.5 nM | C/S [4]: 263
